These results are taken from publication PMC3362575, “Synthesis and Biological Evaluation of Phenanthrenes as Cytotoxic Agents with Pharmacophore Modeling and ChemGPS-NP Prediction as Topo II Inhibitors” (PLoS ONE, 2012).

In data set [1] the test system is Hep3B. The experiment in a line: MTT cytotoxicity assay, Hep3B. The data set is classed as cell-based, human. To be noted: Homo sapiens, Hep3B. The protocol:
(§1) The cytotoxic assay of 11 naturally occurring and 19 synthesized phenanthrenes was carried out on a diverse set of human liver (HepG2 and Hep3B), oral (Ca9-22), lung (A549) and breast (MEA-MB-231 and MCF7) cancer cell lines, and a human fetal lung fibroblast (MRC-5) cell line (Tables 1 and 2).
(§2) Compounds were tested against human liver (HepG2 and Hep3B), oral (Ca9-22), lung (A549), breast (MEA-MB-231 and MCF7) cancer cell lines, and the human fetal lung fibroblast (MRC-5) cell line using an established colorimetric MTT assay protocol. The absorbance was measured at 550 nm using a microplate reader. The IC50 is the concentration of agent that reduced cell growth by 50% under the experimental conditions.
Background: Tetrazolium assays rely on reduction of a dye to a coloured formazan, in cell work by metabolically active cells.

The test system of data set [2] is A549. The experiment in a line: MTT cytotoxicity assay, A549. Type of data set: cell-based, human. To be noted: Homo sapiens. The method, then: as §1, §2
In data set [3] the test system is HepG2. In words: MTT cytotoxicity assay, HepG2. Type of data set: cell-based, human. As to conditions: Homo sapiens. The protocol:
as §1, §2

Data set [4] deals with Ca9-22. In words: MTT cytotoxicity assay, Ca9-22. To be noted: Homo sapiens. The data set is classed as cell-based, human. The protocol: as §1, §2
For data set [5], the system named is MCF-7. In words: MTT cytotoxicity assay, MCF-7. The data set is classed as cell-based, human. As to conditions: Homo sapiens; for IC50: MTT; for MCF-7 activity class (from IC50): MCF7, Table S3, read-out: Scale Exptl. (MCF-7 activity class). The protocol: as §1, §2
The pharmacophore modeling with Catalyst HypoGen was performed via Discovery Studio 2.1 (Accelrys, San Diego, CA, USA). Twenty-nine phenanthrene derivatives were collected from the natural plant, C. arisanensis, and from chemical synthesis (Figure 2). Cytotoxicity against MCF-7 cells was determined by the MTT assay and the concentration (µg/mL) of test compound which inhibited 50% of the cancer cells (IC50) was used in the generation of the pharmacophore model. An IC50 value of >20 µg/mL was defined as 20 µg/mL. All experimental IC50 values spanned about 2–3 orders of magnitude from 0.09 to 20 µg/mL. The 2D/3D structures of compounds were generated using ChemBioOffice 2008 (Cambridge Scientic Computing, Cambridge, Massachusetts, USA) and then optimized in a Dreiding force field. The conformational ensemble of each compound was generated using the best conformational analysis method based on a CHARMM force field with a 20 kcal/mol energy threshold above the global minimum. A maximum limit of 255 conformations was used to cover maximum conformational space. The best 3D arrangements of chemical functionalities should explain the activity variations among the 29 compounds. Thirty runs with different parameters were performed for the best pharmacophore hypothesis. Four chemical features, including hydrogen-bond acceptor (HBA), hydrogen-bond donor (HBD), hydrophobic (HYD), and aromatic ring (AR) features, were also tested during the building of pharmacophore hypotheses (Table S1; Text S1). The best hypotheses were selected via a correlation and a cost analysis in Catalyst HypoGen.

Data set [6] has as its system human cancer cell lines. In words: MTT cytotoxicity assay, ranges over the cancer cell line panel. Type of data set: cell-based. The protocol: as §1, §2
Data set [7] has as its target T1, topoisomerase IIα (Homo sapiens, UniProt P11388).
T1 construct: purchased TopoGEN, Inc
The experiment in a line: Topoisomerase II DNA cleavage assay (Topo II Drug Screening Kit). The data set is classed as biochemical. As to conditions: for formation of linear DNA (Topo IIα DNA cleavage complex): pHOT plasmid DNA, topoisomerase IIα. The protocol: From the ChemGPS-NP analysis, it seems that the MOA for 3-methoxy-1,4-PQs might processes cytotoxicity as a topoisomerase II inhibitor.
Figure 10 Topoisomerase II DNA cleavage assay. An in vitro assay was used to assess the effect of compounds 6a and 5a on the DNA cleavage activity of human TopoII. Etoposide was the positive control. Control lane: TopoIIα + plasmid DNA. DMSO lane: TopoIIα + plasmid DNA + DMSO.
Topoisomerase II assay was performed by using a Topo II Drug Screening Kit (TopoGEN, Inc.). In brief, 0.1 µg of pHOT plasmid DNA was incubated with 2 units of topoisomerase IIα in 20 µL assay buffer at 37°C for 40 min in the presence of tested compounds (6a, 5a) and control drug, etoposide, respectively. 2 µL of 10% SDS and 2.5 µL of 10 mg/mL proteinase K were added into the reaction sample and then incubated for 30 min at 37°C to digest topoisomerase IIα. The samples were mixed with 2 µL of loading buffer and cleaned up by adding an equal volume of phenol:chloroform:isoamyl alcohol (25∶24∶1) according to the description. The sample was mixed by vortex and centrifuge for 10 sec. An aliquot (10 µL) of the upper aqueous part was analyzed by electrophoresis with 2% agarose gel containing 0.5 µg/mL of ethidium bromide.

In data set [8] the test system is MDA-MB-231. In words: MTT cytotoxicity assay, MDA-MB-231. The data set is classed as cell-based, human. To be noted: Homo sapiens. The protocol:
as §1, §2

The subject of data set [9] is MRC-5. In words: MTT cytotoxicity assay, MRC-5 fetal lung fibroblast. The data set is classed as cell-based, human. As to conditions: Homo sapiens, normal fetal lung fibroblast. The method, then:
as §1, §2

Data set [10] concerns human topoisomerase IIα. Further details: method as in PMID 15182198. To be noted: cited from earlier work.
[11] abbreviates: Table 2, synthesized phenanthrenes.
[12] abbreviates: A549, Table 2, synthesized phenanthrenes.
Setting [13] is: HepG2, Table 2, synthesized phenanthrenes.
Where [14] appears, read: Ca9-22, Table 2, synthesized phenanthrenes.
Where [15] appears, read: MCF7, Table 2, synthesized phenanthrenes.
The mark [16] stands for this setting: MDA-MB-231, Table 2, synthesized phenanthrenes.
Setting [17] is: MRC5, Table 2, synthesized phenanthrenes.

SMILES strings stand for the structures. ≈ marks a conversion by molar mass, not a printed value. Some results are limits rather than exact numbers.

T1 sequence (P11388 whole entry): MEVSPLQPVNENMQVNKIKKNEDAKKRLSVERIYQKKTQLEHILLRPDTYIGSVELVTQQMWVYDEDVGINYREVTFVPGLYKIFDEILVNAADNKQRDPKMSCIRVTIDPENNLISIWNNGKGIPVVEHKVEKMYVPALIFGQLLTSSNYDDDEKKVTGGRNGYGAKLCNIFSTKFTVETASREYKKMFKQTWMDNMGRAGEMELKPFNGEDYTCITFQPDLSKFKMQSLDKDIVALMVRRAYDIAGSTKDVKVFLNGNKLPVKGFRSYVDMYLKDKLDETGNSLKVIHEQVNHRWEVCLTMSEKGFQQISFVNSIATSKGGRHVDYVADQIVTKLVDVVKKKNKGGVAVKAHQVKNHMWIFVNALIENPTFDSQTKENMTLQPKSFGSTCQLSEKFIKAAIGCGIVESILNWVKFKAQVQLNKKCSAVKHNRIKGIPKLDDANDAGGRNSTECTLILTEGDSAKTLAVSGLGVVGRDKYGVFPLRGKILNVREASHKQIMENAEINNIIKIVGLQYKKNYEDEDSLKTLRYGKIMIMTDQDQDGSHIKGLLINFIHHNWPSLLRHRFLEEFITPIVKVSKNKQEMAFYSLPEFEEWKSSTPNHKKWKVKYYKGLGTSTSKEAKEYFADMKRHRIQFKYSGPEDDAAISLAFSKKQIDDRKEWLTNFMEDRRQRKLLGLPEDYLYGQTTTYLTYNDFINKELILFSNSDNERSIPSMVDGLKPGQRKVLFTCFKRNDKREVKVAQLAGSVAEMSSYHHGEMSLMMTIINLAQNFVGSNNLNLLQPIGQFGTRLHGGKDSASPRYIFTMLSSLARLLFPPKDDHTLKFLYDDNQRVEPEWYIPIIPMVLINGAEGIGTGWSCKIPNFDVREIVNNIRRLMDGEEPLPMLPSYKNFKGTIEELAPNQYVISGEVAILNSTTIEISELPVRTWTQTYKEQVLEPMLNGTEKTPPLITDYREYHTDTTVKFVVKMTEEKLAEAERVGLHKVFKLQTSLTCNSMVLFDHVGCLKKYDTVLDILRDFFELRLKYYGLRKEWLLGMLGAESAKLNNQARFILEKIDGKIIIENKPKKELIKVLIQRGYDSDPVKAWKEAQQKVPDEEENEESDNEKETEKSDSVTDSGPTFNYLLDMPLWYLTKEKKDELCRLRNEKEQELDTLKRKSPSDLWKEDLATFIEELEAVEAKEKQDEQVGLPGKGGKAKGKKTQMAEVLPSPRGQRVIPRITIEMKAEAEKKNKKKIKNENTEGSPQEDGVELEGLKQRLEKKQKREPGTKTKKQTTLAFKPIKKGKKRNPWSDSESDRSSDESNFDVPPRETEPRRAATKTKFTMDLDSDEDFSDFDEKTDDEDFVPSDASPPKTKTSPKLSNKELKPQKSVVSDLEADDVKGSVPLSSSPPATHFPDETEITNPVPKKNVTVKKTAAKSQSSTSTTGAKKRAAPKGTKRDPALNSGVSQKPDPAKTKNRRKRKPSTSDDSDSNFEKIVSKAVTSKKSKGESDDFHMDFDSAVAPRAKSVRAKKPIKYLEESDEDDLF

As for `COC1=CC(=O)c2ccc3cc(OC)c(OC)c(O)c3c2C1=O` [Compound 6a, 5-Hydroxy-3,6,7-trimethoxy-1,4-phenanthrenequinone], the IC50 in data set [1] (Table 1, natural phenanthrenes) was 0.22 µg/mL (≈ 0.7 µM); in [1] (setting [11]) it was 0.19 ± 0.01 µg/mL (≈ 0.605 µM); in [2] (A549, Table 1, natural phenanthrenes) it was 0.11 µg/mL (≈ 0.35 µM); in data set [2] (setting [12]) it was 0.14 ± 0.02 µg/mL (≈ 0.445 µM); in data set [3] (HepG2, Table 1, natural phenanthrenes) it was 0.21 ± 0.01 µg/mL (≈ 0.668 µM); in data set [3] (setting [13]) it was 0.08 µg/mL (≈ 0.255 µM). Also, the IC50 in [4] (Ca9-22, Table 1, natural phenanthrenes) is 0.17 ± 0.01 µg/mL (≈ 0.541 µM); in data set [4] (setting [14]), 0.59 ± 0.01 µg/mL (≈ 1.88 µM); in [5] (MCF7, Table 1, natural phenanthrenes) it was 0.09 µg/mL (≈ 0.286 µM); in data set [5] (setting [15]), 0.2 µg/mL (≈ 0.636 µM); in [6] (Homo sapiens, range over the cancer cell lines tested, read-out: IC50 against various / all human cancer cell lines), 0.08 to 1.66 µg/mL (≈ 0.255 to 5.28 µM); in [8] (MDA-MB-231, Table 1, natural phenanthrenes) it was 0.64 ± 0.06 µg/mL (≈ 2.04 µM). Further, the IC50 in [8] (setting [16]) stood at 0.89 ± 0.01 µg/mL (≈ 2.83 µM); in [9] (MRC5, Table 1, natural phenanthrenes), 0.65 µg/mL (≈ 2.07 µM); in [9] (setting [17]) it was 0.6 ± 0.05 µg/mL (≈ 1.91 µM). Further, the MCF-7 activity class (from IC50) in [5] was under 1 µg/mL. Moreover, in data set [6] (HepG2, Hep3B, Ca9-22, A549, MEA-MB-231 and MCF7 cancer cell lines), the “fold greater cytotoxic activity than denbinobin (6b)” value is “up to 7 fold”. Also, the “inhibition on Topo IIα (supercoiled DNA instead of relaxed)” value in [7] (100 µmol/L) is “showed the inhibition on Topo IIα”. Also, the “formation of linear DNA (Topo IIα DNA cleavage complex)” value in [7] is “induced the formation of linear DNA”.
In the case of `COC1=CC(=O)c2ccc3cc(OC)c(OC)c(OC)c3c2C1=O` [Compound 5a, 3,5,6,7-Tetramethoxy-1,4-phenanthrenequinone], the IC50 in data set [1] (setting [11]) is 4.67 ± 0.81 µg/mL (≈ 14.2 µM); in data set [2] (setting [12]), 11 ± 0.44 µg/mL (≈ 33.6 µM); in data set [3] (setting [13]), 4.65 ± 0.07 µg/mL (≈ 14.2 µM); in data set [4] (setting [14]) it was 5.99 ± 0.24 µg/mL (≈ 18.2 µM); in data set [5] (setting [15]) it was 14.3 ± 0.5 µg/mL (≈ 43.5 µM); in [8] (setting [16]), over 20 µg/mL. Besides, the IC50 in [9] (setting [17]) was over 20 µg/mL. Besides, the MCF-7 activity class (from IC50) in data set [5] was in the range of 1 to 20 µg/mL. Further, in [6] (all human cancer cell lines), the “activity against all human cancer cell lines” value is on record as “marginal activities”. Further, in data set [7] (200 µmol/L), the “inhibition on Topo IIα (supercoiled DNA instead of relaxed)” value is reported as “had the similar effect”. The “formation of linear DNA (Topo IIα DNA cleavage complex)” value in [7] is recorded as “induced the formation of linear DNA”.
Consider `O=C1C=CC(=O)C=C1` [1,4-benzoquinone], for which, in data set [10], the “poisoning of human topoisomerase IIα” value was “poison human topoisomerase IIα”.
